Source: patent publication EP0533724B1, “CALCIUM CITRATE MALATE COMPOSITION” (THE PROCTER & GAMBLE COMPANY, priority 1990, dated 1991)

Assay: physchem
Details: water
Text: The exact method for determining this is described hereinafter.

O=C(O)CC(O)C(=O)O (stereo not shown) [calcium malate]
solubility at 0.5 h: 660 mg/mL
